Structures are written as SMILES. Entries after “also recorded” stand apart in the source; their conditions may differ. Square brackets hold non-standard residues; d marks the D form. Peptide text beside a SMILES is read from it. Hyp = O=C(O)[C@@H]1C[C@@H](O)CN1

Data set [1] is described as follows: Shelf-life / storage studies of lyophilized peptide, read out in the immature mouse uterine growth assay. To be noted: for shelf-life: storage in the lyophilized state at -20°C, activity tested in immature mouse uterine growth assay. The format is physicochemical. The protocol:
Peptide or vehicle control was injected i.p. into immature female Swiss mice. One hour later 0.5 µg of E2 or vehicle control was injected i.p. into these mice. Twenty-two hours later, uteri were dissected and weighed. Percent inhibition of E2-stimulated growth of uterus by peptide was calculated as described in Materials and Methods. There were five to eight replicate mice per treatment group. (Figure 1a) Peptide dose-response. […] Peptide, SEQ ID NO:2: […], was fractionated using a Waters SW 200 gel-filtration column using phosphate buffered saline pH 7.4 as mobil phase. Fractions which had significant UV absorbance at 230 nm were collected at twenty second intervals. The first fraction (Frac I), the last fraction (Frac III), and the starting material (UnFrac) were all tested in the immature mouse uterine growth assay as described in Figures 1a and 1b. […] (Figure 3a) dose-response. […] (Figure 4a) dose-response. […] There were five to eight replicate mice per treatment group. Estrogen was provided via a slow release pellet implanted subcutaneously. Peptide was given twice a day i.p. at a dose of 1 µg per mouse. Tumor volumes in each mouse were measured at the time of tumor implantation and at 10-day intervals thereafter during survival laparotomies. […] (Figure 6a) dose-response. […] Experimental protocol is described in legend to Figure 5 and Materials and Methods. […] Rabbit uterine cytosol was used as a source of estrogen receptor. All incubations were performed in triplicate, each containing 100 µl of cytosol, 20 µl of 10 nM 6,7-^3Hestradiol (50 Ci/mmol), and 80 µl of test agent at the final concentrations indicated on the abscissa. Details of the assay are described in Materials and Methods. • Concentration of [^3H] E2-complex with receptor in the presence of different concentrations of test agent is expressed as a percentage of the amount of complex formed in the absence of test agent; • Figures 9a and 9b illustrate the effect of AFP-derived peptide on growth of estrogen-receptor-positive MCF-7 and MCF-7/Tam.human breast cancer xenografts. Tumors were implanted as described in Materials and Methods. […] Tumor volumes in each mouse were measured at the time of tumor implantation, again at day 15 after tumor implantation during survival laparotomy and again at day 30 after tumor implantation during necropsy. There was a minimum of 5 mice per group. (Figure 9a) MCF-7 tumors. […] See legend to Figures 9a and 9b for experimental protocol. […] See legend to Figures 9a and 9b for experimental protocol. […] Rabbit uterine cytosol was used as a source of estrogen receptor. All incubations were performed in triplicate, each containing 100 µl of cytosol, 20 µl of 10 nM 6,7-^3H estradiol (50 Ci/mmol), and 80 µl of test agent at the final concentrations indicated on the abscissa. […]

For data set [2], the system named is E2-stimulated growth of immature mouse uterus. The conditions noted are these: for dose of maximal inhibitory activity on estrogen-stimulated growth of immature mouse uterus: i.p., dose-response. Here is the method: (§1) Peptide or vehicle control was injected i.p. into immature female Swiss mice. One hour later 0.5 µg of E2 or vehicle control was injected i.p. into these mice. Twenty-two hours later, uteri were dissected and weighed. Percent inhibition of E2-stimulated growth of uterus by peptide was calculated as described in Materials and Methods. There were five to eight replicate mice per treatment group. (Figure 1a) Peptide dose-response. […] Peptide, SEQ ID NO:2: […], was fractionated using a Waters SW 200 gel-filtration column using phosphate buffered saline pH 7.4 as mobil phase. Fractions which had significant UV absorbance at 230 nm were collected at twenty second intervals. The first fraction (Frac I), the last fraction (Frac III), and the starting material (UnFrac) were all tested in the immature mouse uterine growth assay as described in Figures 1a and 1b. […] (Figure 3a) dose-response. […] (Figure 4a) dose-response. […] There were five to eight replicate mice per treatment group. Estrogen was provided via a slow release pellet implanted subcutaneously. Peptide was given twice a day i.p. at a dose of 1 µg per mouse. Tumor volumes in each mouse were measured at the time of tumor implantation and at 10-day intervals thereafter during survival laparotomies. […] (Figure 6a) dose-response. […] Experimental protocol is described in legend to Figure 5 and Materials and Methods. […] Rabbit uterine cytosol was used as a source of estrogen receptor. All incubations were performed in triplicate, each containing 100 µl of cytosol, 20 µl of 10 nM 6,7-^3Hestradiol (50 Ci/mmol), and 80 µl of test agent at the final concentrations indicated on the abscissa. Details of the assay are described in Materials and Methods. • Concentration of [^3H] E2-complex with receptor in the presence of different concentrations of test agent is expressed as a percentage of the amount of complex formed in the absence of test agent; • Figures 9a and 9b illustrate the effect of AFP-derived peptide on growth of estrogen-receptor-positive MCF-7 and MCF-7/Tam.human breast cancer xenografts. Tumors were implanted as described in Materials and Methods. […] Tumor volumes in each mouse were measured at the time of tumor implantation, again at day 15 after tumor implantation during survival laparotomy and again at day 30 after tumor implantation during necropsy. There was a minimum of 5 mice per group. (Figure 9a) MCF-7 tumors. […] See legend to Figures 9a and 9b for experimental protocol. […] See legend to Figures 9a and 9b for experimental protocol. […] Rabbit uterine cytosol was used as a source of estrogen receptor. All incubations were performed in triplicate, each containing 100 µl of cytosol, 20 µl of 10 nM 6,7-^3H estradiol (50 Ci/mmol), and 80 µl of test agent at the final concentrations indicated on the abscissa. Concentration of [^3H] […] The assay procedure is described in the Materials and Methods.

Data set [3] deals with MCF-7 human breast cancer xenografts. The data set can be described thus: Human breast cancer xenograft assay, MCF-7. The format is in vivo. To be noted: E2 implant, 30-day observation. The protocol:
Peptide or vehicle control was injected i.p. into immature female Swiss mice. One hour later 0.5 µg of E2 or vehicle control was injected i.p. into these mice. Twenty-two hours later, uteri were dissected and weighed. Percent inhibition of E2-stimulated growth of uterus by peptide was calculated as described in Materials and Methods. There were five to eight replicate mice per treatment group. (Figure 1a) Peptide dose-response. […] Peptide, SEQ ID NO:2: […], was fractionated using a Waters SW 200 gel-filtration column using phosphate buffered saline pH 7.4 as mobil phase. Fractions which had significant UV absorbance at 230 nm were collected at twenty second intervals. The first fraction (Frac I), the last fraction (Frac III), and the starting material (UnFrac) were all tested in the immature mouse uterine growth assay as described in Figures 1a and 1b. […] (Figure 3a) dose-response. […] (Figure 4a) dose-response. […] There were five to eight replicate mice per treatment group. Estrogen was provided via a slow release pellet implanted subcutaneously. Peptide was given twice a day i.p. at a dose of 1 µg per mouse. Tumor volumes in each mouse were measured at the time of tumor implantation and at 10-day intervals thereafter during survival laparotomies. […] (Figure 6a) dose-response. […] Experimental protocol is described in legend to Figure 5 and Materials and Methods. […] Rabbit uterine cytosol was used as a source of estrogen receptor. […] E2-complex with receptor in the presence of different concentrations of test agent is expressed as a percentage of the amount of complex formed in the absence of test agent; • Figures 9a and 9b illustrate the effect of AFP-derived peptide on growth of estrogen-receptor-positive MCF-7 and MCF-7/Tam.human breast cancer xenografts. […] Tumor volumes in each mouse were measured at the time of tumor implantation, again at day 15 after tumor implantation during survival laparotomy and again at day 30 after tumor implantation during necropsy. […]

The conditions of data set [4]: mouse, in vivo.
In a further data set the target is T1, estrogen receptor (Oryctolagus cuniculus, UniProt G1SML6).
T1 sequence (G1SML6 1-598): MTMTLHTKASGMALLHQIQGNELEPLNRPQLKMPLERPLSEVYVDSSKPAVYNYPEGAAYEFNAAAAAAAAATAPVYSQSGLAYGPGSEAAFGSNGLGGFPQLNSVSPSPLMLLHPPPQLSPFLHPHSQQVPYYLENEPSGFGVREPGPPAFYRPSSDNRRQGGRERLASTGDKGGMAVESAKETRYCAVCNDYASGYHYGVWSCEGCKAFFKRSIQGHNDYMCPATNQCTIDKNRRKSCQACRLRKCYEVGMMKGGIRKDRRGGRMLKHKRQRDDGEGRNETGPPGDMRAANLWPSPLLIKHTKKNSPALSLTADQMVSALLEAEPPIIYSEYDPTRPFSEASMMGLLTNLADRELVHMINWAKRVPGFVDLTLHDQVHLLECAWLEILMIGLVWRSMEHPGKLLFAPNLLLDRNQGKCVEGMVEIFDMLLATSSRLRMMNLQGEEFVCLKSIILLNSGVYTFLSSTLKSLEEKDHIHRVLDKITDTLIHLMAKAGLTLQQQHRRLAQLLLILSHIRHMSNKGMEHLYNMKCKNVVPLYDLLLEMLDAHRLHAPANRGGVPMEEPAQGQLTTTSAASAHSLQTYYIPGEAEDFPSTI
The conditions noted are these: at a concentration of 100 nM; rabbit uterine cytosol. The protocol:
as §1

The test system of data set [5] is MCF-7 human breast cancer xenografts. To be noted: earlier study (Bennett et al. 1998); cited from earlier work.
For data set [6], the system named is MCF-7/Tam human breast cancer xenografts. In words: Human breast cancer xenograft assay, tamoxifen-resistant MCF-7 subline. The format is in vivo. To be noted: tamoxifen 50 µg per mouse i.p. once a day; E2 implant; day 30. The protocol: Peptide or vehicle control was injected i.p. into immature female Swiss mice. One hour later 0.5 µg of E2 or vehicle control was injected i.p. into these mice. Twenty-two hours later, uteri were dissected and weighed. Percent inhibition of E2-stimulated growth of uterus by peptide was calculated as described in Materials and Methods. There were five to eight replicate mice per treatment group. (Figure 1a) Peptide dose-response. […] Peptide, SEQ ID NO:2: […], was fractionated using a Waters SW 200 gel-filtration column using phosphate buffered saline pH 7.4 as mobil phase. Fractions which had significant UV absorbance at 230 nm were collected at twenty second intervals. […] Tumor volumes in each mouse were measured at the time of tumor implantation and at 10-day intervals thereafter during survival laparotomies. […] E2-complex with receptor in the presence of different concentrations of test agent is expressed as a percentage of the amount of complex formed in the absence of test agent; • Figures 9a and 9b illustrate the effect of AFP-derived peptide on growth of estrogen-receptor-positive MCF-7 and MCF-7/Tam.human breast cancer xenografts. […] Tumor volumes in each mouse were measured at the time of tumor implantation, again at day 15 after tumor implantation during survival laparotomy and again at day 30 after tumor implantation during necropsy. […]
For orientation: A xenograft is tissue or cells of one species grown in another, often human tumour cells in immunodeficient mice.

In data set [7] the test system is MDA-MB-231 human breast cancer xenografts. The data set can be described thus: Human breast cancer xenograft assay, MDA-MB-231. The conditions noted are these: tamoxifen 50 µg per mouse i.p. once a day. The format is in vivo.
Data set [8] relates to T47D human breast cancer xenografts. The data set can be described thus: Human breast cancer xenograft assay, T47D. The format is in vivo. The conditions noted are these: tamoxifen.

In the case of `CSCC[C@@H]1NC(=O)[C@H](CCC(=O)O)NC(=O)[C@H](CCC(N)=O)NC(=O)CNC(=O)[C@@H]2CCCN2C(=O)[C@H](CC(N)=O)NC(=O)[C@H](C(C)C)NC(=O)[C@@H]2CCCN2C(=O)[C@H]([C@@H](C)O)NC1=O` (cyclo(EMTPVNPGQ)), in data set [1] (after storage of six months), the “biological activity after prolonged storage” value was “significant, albeit not optimal, biological activity”. Further, in [1], the shelf-life result was “somewhat extended but still rather limited shelf-life”. Besides, the “biological activity after treatment with 4 M urea” value in data set [1] (stored/aged peptide, brief treatment with 4 M urea) is “restored the optimal biological activity”. Further, the “inhibition of estrogen-stimulated growth of immature mouse uterus” value in data set [2] (at the optimal dose of the linear peptides (1 µg)) was “very active”. Further, the “dose of maximal inhibitory activity on estrogen-stimulated growth of immature mouse uterus” value in data set [2] is on record as 10 µg per mouse.
For `CSCC[C@@H]1NC(=O)[C@H](CCC(=O)O)NC(=O)[C@H](CCC(N)=O)NC(=O)CNC(=O)[C@@H]2C[C@@H](O)CN2C(=O)[C@H](CC(N)=O)NC(=O)[C@H](C(C)C)NC(=O)[C@@H]2C[C@@H](O)CN2C(=O)[C@H]([C@@H](C)O)NC1=O` [Cyclo-(SEQ ID NO:5: EMTOVNOGQ), Cyclo-(EMTOVNOGQ)] (cyclo(EMT[Hyp]VN[Hyp]GQ)), the “estrogen-dependent growth of MCF-7 human breast cancer xenografts (tumor volume vs E2 alone)” value in [3] (peptide 1 µg per mouse i.p. twice a day, SCID mice) was “significantly inhibited”. In addition, the shelf-life result in data set [1] was “Indefinite shelflife; also recorded: indefinite shelf-life”. Further, the anti-estrotrophic activity entry in data set [2] (at doses higher than 10 µg/mouse) is recorded as “retained significant anti-estrotrophic activity”. In addition, in data set [2], the “dose of maximal inhibitory activity on estrogen-stimulated growth of immature mouse uterus” value is reported as 10 µg per mouse.
Regarding `CSCC[C@H](NC(=O)[C@@H](N)CCC(=O)O)C(=O)N[C@H](C(=O)N1C[C@H](O)C[C@H]1C(=O)N[C@H](C(=O)N[C@@H](CC(N)=O)C(=O)N1C[C@H](O)C[C@H]1C(=O)NCC(N)=O)C(C)C)[C@@H](C)O` [SEQ ID NO:4: EMTOVNOG, EMTOVNOG] (H-EMT[Hyp]VN[Hyp]G-NH2), the biological half-life result in data set [4] was “two to three”.
Turning to `O=C(c1ccc(OCCN2CCCCC2)cc1)c1c(-c2ccc(O)cc2)sc2cc(O)ccc12` [raloxifene], the “inhibition of estradiol binding to its receptor” value on estrogen receptor was “completely inhibited”.
As to `CC/C(=C(\c1ccccc1)c1ccc(OCCN(C)C)cc1)c1ccccc1` [tamoxifen], the “MCF-7 breast cancer xenograft growth” value in [5] is recorded as “stop MCF-7 breast cancer xenograft growth”. Besides, the “growth of tamoxifen-resistant MCF-7 subline xenografts (tumor volume vs E2 alone)” value in [6] was “resistant to tamoxifen in vivo; also recorded: only minimally effective”. For the same molecule, in [7], the “growth of ER- MDA-MB-231 human breast cancer xenografts” value is recorded as “Neither peptide nor tamoxifen were effective; also recorded: did not affect the growth”. The “estrogen-dependent growth of MCF-7 human breast cancer xenografts (tumor volume vs E2 alone)” value in [3] (tamoxifen 50 µg per mouse i.p. once a day) is “prevented growth; also recorded: no increase in tumor volume”; in [3] (tamoxifen 50 µg per mouse i.p. once a day, listed as Tamoxifen) it was “significantly different”. For the same molecule, the “growth of ER+ T47D human breast cancer xenografts” value in data set [8] is “prevented growth”.
